Data taken from publication PMC5831858, “Pharmacological characterisation of CR6086, a potent prostaglandin E2 receptor 4 antagonist, as a new potential disease-modifying anti-rheumatic drug” (Arthritis Research & Therapy, 2018).
Read-outs that look alike come from different tables or passages of the source. Marks after values point to notes of the source that are not given here.

Legend:
[1] = CR6086 pharmacokinetics in rats; assay type: in vivo, rat; conditions: for Cmax / AUC / Tmax: rat, plasma, oral; for AUC: read-out: AUC24; for Tmax: median
Experimental: CR6086 concentrations in rat plasma were determined by high-performance liquid chromatography (Agilent 1200 series; Agilent Technologies, Santa Clara, CA, USA) coupled with a triple-quadrupole mass spectrometer (API 4000 QTRAP; SCIEX, Concord, ON, Canada). A ZORBAX SB-C18 2.0 × 50-mm, 3.5-μm column (Agilent Technologies) in isocratic conditions was used with mobile phase 0.1% formic acid in water/acetonitrile (68:32 vol/vol). The method was linear within the dynamic range 1.0–10,000 ng/ml (lower to upper limit of quantification). CR6086 plasma protein binding was determined in the 0.2–200 μM concentration range using [^14C]CR6086 and equilibrium dialysis. EP4 receptor occupancy (RO) was calculated on the basis of CR6086 concentrations according to the following formula: RO%=Cave/Cave+Ki×100,
The pharmacokinetics of CR6086 were investigated in the animal species used as rheumatoid arthritis models, employing the same administration route and dose range. […] Therefore, for ethical reasons, all pharmacokinetic experiments were conducted in naive animals.

[2] = test system: arthritic mice (collagen-induced arthritis model); assay: CIA in mice, third study (CR6086, MTX, combination): clinical score, oedema, histology; assay type: in vivo, mouse; conditions: for CLINICAL SCORE (interquartile range): 30 mg/kg CR6086, median (IQR)
DP1 = DP1 (Homo sapiens, UniProt Q13258); assay: Eicosanoid receptor DP1 functional assay; assay type: cell-based; conditions: CHO cells
M1 = M1 (Homo sapiens, UniProt P11229); assay: Muscarinic acetylcholine receptor M1 binding; conditions: [^3H]pirenzepine, Human recombinant CHO cells, read-out: CR6086 Activity at 10µM
Y2 = Y2 (Homo sapiens, UniProt P49146); assay: Neuropeptide Y receptor Y2 binding; conditions: [^125I]peptide YY, KAN-TS cells, read-out: CR6086 Activity at 10µM
sst (non-selective) = assay: sst receptor (non-selective) binding; conditions: [^125I]Tyr^11-somatostatin-14, AtT-20 cells

DP1, sequence (Q13258 whole entry): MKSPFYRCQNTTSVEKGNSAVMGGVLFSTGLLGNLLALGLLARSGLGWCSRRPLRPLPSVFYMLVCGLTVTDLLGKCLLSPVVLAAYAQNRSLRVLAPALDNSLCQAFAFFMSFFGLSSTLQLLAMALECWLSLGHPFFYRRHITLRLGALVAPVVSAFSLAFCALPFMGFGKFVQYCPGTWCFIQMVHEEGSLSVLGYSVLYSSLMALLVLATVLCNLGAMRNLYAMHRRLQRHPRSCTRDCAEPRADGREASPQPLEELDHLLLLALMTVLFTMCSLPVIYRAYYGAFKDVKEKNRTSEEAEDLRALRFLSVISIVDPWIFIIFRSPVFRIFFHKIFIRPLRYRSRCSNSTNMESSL
Y2, sequence (P49146 whole entry): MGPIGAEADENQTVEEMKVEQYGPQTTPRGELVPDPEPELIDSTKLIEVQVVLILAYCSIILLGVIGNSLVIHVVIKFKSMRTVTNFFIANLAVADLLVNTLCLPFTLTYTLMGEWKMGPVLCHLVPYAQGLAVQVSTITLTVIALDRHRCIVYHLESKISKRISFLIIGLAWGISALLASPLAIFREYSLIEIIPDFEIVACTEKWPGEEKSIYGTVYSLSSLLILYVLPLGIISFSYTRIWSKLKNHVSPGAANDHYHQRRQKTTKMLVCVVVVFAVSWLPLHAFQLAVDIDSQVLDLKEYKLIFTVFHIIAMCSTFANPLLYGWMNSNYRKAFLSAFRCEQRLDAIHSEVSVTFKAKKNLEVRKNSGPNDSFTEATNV
M1, sequence (P11229 whole entry): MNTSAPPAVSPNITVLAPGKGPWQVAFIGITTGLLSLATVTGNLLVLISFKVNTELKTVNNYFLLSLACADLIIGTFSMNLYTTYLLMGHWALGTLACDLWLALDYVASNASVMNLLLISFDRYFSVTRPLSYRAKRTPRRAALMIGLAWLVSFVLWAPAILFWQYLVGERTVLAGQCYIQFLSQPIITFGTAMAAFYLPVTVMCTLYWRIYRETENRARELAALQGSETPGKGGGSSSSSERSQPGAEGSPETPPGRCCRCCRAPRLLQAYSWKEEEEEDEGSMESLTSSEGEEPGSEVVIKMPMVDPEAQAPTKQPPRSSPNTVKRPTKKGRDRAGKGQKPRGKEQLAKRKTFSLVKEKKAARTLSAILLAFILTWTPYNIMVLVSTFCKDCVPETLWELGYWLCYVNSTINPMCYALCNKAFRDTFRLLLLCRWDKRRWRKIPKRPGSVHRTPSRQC

In the case of `O=C([O-])c1ccc(C2(NC(=O)[C@H]3CC4(CCN3Cc3ccc(C(F)(F)F)cc3)CC4)CC2)cc1.[Na+]` [CR6086, Sodium (R)-4-(1-(6-(4-(trifluoromethyl)benzyl)-6-azaspiro[2.5]octane-5-carboxamido)cyclopropyl)benzoate], the “unbound Cave” value ([1]; 3 mg/kg, 24-h dosing interval, single dose) is reported as 27.6 ng/mL, the “unbound Cave adjusted for the accumulation ratio” value ([1]; 3 mg/kg, repeated doses) is reported as 32.8 ng/mL and the “dose linearity of pharmacokinetics” value ([1]; 1–30 mg/kg oral) is reported as “linear pharmacokinetics”. For the same compound, the oral absorption ([1]; 1–30 mg/kg oral) was “rapidly and completely absorbed”, the “accumulation ratio after repeated doses” value ([1]; male rats) was 1.19 and the Cmax ([1]; 1 mg/kg) was 1250 ± 67 ng/mL. For the same compound, the AUC ([1]; 1 mg/kg, AUC4 for the dose of 1 mg/kg) was 2170 ± 338 ng·h/mL, the Tmax ([1]; 1 mg/kg) was 15 min and the Cmax ([1]; 3 mg/kg) was 3230 ± 173 ng/mL. For the same compound, the Tmax ([1]; 3 mg/kg) was 15 min, the AUC ([1]; 3 mg/kg) was 13700 ± 3990 ng·h/mL and the Cmax ([1]; 10 mg/kg) was 14500 ± 3400 ng/mL. The Tmax ([1]; 10 mg/kg) was 30 min, the AUC ([1]; 10 mg/kg) was 58000 ± 6730 ng·h/mL and the Cmax ([1]; 15 mg/kg) was 11900 ± 2040 ng/mL. It also gave a Tmax ([1]; 15 mg/kg) of 30 min, an AUC ([1]; 15 mg/kg) of 61600 ± 10600 ng·h/mL and a Cmax ([1]; 30 mg/kg) of 34500 ± 6400 ng/mL. For the same compound, the Tmax ([1]; 30 mg/kg) was 60 min, the AUC ([1]; 30 mg/kg) was 206000 ± 46000 ng·h/mL and the “effect on joint histopathology” value ([2]; 16 days, 30 mg/kg CR6086, 3 mg/kg MTX, alone or combined) was “significantly improved all histological features of arthritis”. For the same compound, the “CLINICAL SCORE (interquartile range)” value ([2]; DAY 0) was 2.0 (2.0 – 2.0) *, the “CLINICAL SCORE (interquartile range)” value ([2]; DAY 1) was 2.0 (2.0 – 2.0) and the “CLINICAL SCORE (interquartile range)” value ([2]; DAY 2) was 2.0 (1.0 – 2.0). For the same compound, the “CLINICAL SCORE (interquartile range)” value ([2]; DAY 3) was 2.0 (1.0 – 3.1), the “CLINICAL SCORE (interquartile range)” value ([2]; DAY 4) was 2.0 (1.0 – 2.3) and the “CLINICAL SCORE (interquartile range)” value ([2]; DAY 5) was 2.0 (1.3 – 2.0). The “CLINICAL SCORE (interquartile range)” value ([2]; DAY 6) was 2.0 (2.0 – 3.0), the “CLINICAL SCORE (interquartile range)” value ([2]; DAY 7) was 2.0 (1.0 – 3.1) and the “CLINICAL SCORE (interquartile range)” value ([2]; DAY 8) was 2.0 (0.5 – 3.5). For the same compound, the “CLINICAL SCORE (interquartile range)” value ([2]; DAY 9) was 2.0 (1.0 – 3.3), the “CLINICAL SCORE (interquartile range)” value ([2]; DAY 10) was 2.5 (2.0 – 4.3) and the “CLINICAL SCORE (interquartile range)” value ([2]; DAY 11) was 4.0 (2.0 – 5.0). The “CLINICAL SCORE (interquartile range)” value ([2]; DAY 12) was 4.8 (2.8 – 5.1), the “CLINICAL SCORE (interquartile range)” value ([2]; DAY 13) was 4.5 (3.0 – 5.5) and the “CLINICAL SCORE (interquartile range)” value ([2]; DAY 14) was 3.0 (3.0 – 4.9). The “CLINICAL SCORE (interquartile range)” value ([2]; DAY 15) was 4.5 (3.0 – 5.0), the “CLINICAL SCORE (interquartile range)” value ([2]; DAY 16) was 2.0 (1.0 – 3.5) and the inhibition at 10 µM (DP1; agonist effect, read-out: CR6086 Activity at 10µM) was under 20%. The “CR6086 Activity at 10µM” value (DP1; antagonist effect) was “IN (IN = < 20% displacement or inhibition (all tables))”, the inhibition at 10 µM (M1) was under 20% and the inhibition at 10 µM (Y2) was under 20%. The “CR6086 Activity at 10µM” value (sst (non-selective)) was “IN (IN = < 20% displacement or inhibition (all tables))”.
